Reference: patent US9233138B2, “Compositions for promoting HIV-1 virolysis and methods using same” (Drexel University, priority 2013, dated 2016)
Entries after “also recorded” stand apart in the source; their conditions may differ. Where two headings read alike, the source gives them in different places.

Tests used:
[1] = system: HIV-1 BaL pseudotyped virus; assay type: cell-based; settings: for IC50: read-out: IC50, inhibition of HIV-1 BaL viral entry
[2] = system: HIV-1 BaL pseudotyped virus
VSV pseudotyped virus [3] = assay type: cell-based, Vesicular Stomatitis Virus
VSV pseudotyped virus [4] = system: VSV pseudotyped virus; parameters: species or system Vesicular Stomatitis Virus
[5] = system: fully infectious HIV-1 BaL; test: Virolysis assay, p24 leakage ELISA, fully infectious virus; settings: FIG. 5; read-out: IC50 for p24 leakage from fully infectious HIV-1 BaL
HOS.T4.R5 cells [6] = system: HOS.T4.R5 cells
HIV-1 BaL pseudovirus [7] = settings: 100 nM, 10 to 30 min at 37° C., compared with PBS treated virus
Experimental: The compounds were incubated with the HIV-1 BaL pseudovirus for 30 min at 37° C. before fixing the virions with 0.1% paraformaldehyde and loaded onto a holey carbon 200 mesh grid for TEM analysis. The grids were stained with 1% uranyl acetate and loaded onto a JEM 2100 microscope system (JEOL, Japan) operated at 120 kV. Energy-dispersive X-ray (EDX) spectroscopy was conducted on the sample (blue) and the empty mesh (red) in order to confirm assignment of virion particles.
Transmission electron microscopy (TEM) analysis was conducted to assess the morphology of untreated and D4- and D8-treated virions. Pseudotyped HIV-1 BaL was treated with D4 or D8 at 100 nM from 10 to 30 min at 37° C. The samples were then spun for 2 hours at 16,000 rpm in an ultracentrifuge (Eppendorf) at 4° C. The residual virions were fixed using 0.1% paraformaldehyde for 15 min at 4° C. The paraformaldehyde was filtered using a 100 kDa filter (Millipore), and the virions were resuspended in deionized water. The samples were then loaded onto a lacey carbon 200 mesh grid (Pacific Grid Tech), and the grid was then negatively stained using 2% uranyl acetate. Once the grid was dried, the samples were loaded onto a JEM 2100 microscope system (JEOL, Japan) operated at 120 kV. The virus images and the background mesh were evaluated by energy-dispersive X-ray spectroscopy (EDX) in order to confirm identification of virions. […]

HIV-1 group M clades = settings: read-out: IC50, antiviral activity against all HIV-1 group M clades; cited from earlier work
Env / gp120 = settings: cited from earlier work
A-MLV pseudotyped virus = assay type: cell-based, Amphotropic Murine Leukemia Virus
HIV-1 BaL pseudovirus [8] = settings: D4 and D8 50 nM; competitor serial dilution from 0.5 μM
HOS.T4.R5 cells [9] = test: Cytotoxicity assay with WST-1 reagent; parameters: dose or concentration left out as unconfirmed; settings: 24 hours post-exposure, FIG. 3

## (G4S)4-MPER [linker(4)-MPER, reference compound]
[1]
  virus inactivation accompanying p24 leakage: not associated with equivalent virus inactivation
[2]; non-His-tagged peptide, FIG. 13C
  p24 leakage: Significant p24 leakage

## D4: fusion of CVN and MPER with (Gly4Ser)4-His6 linker: SEQ ID NO:1-(SEQ ID NO:6)4-SEQ ID NO:5-SEQ ID NO:11
[1]
  IC50: 0.58 ± 0.069 nM
VSV pseudotyped virus [3]
  viral entry inhibition, VSV envelope pseudovirus: no significant dose-dependent viral entry inhibition
[2]; HIV-1 BaL pseudovirus, 30 min incubation, relative to 1% Triton X-100 lysed virus, FIG. 4A, read-out: IC50 for viral leakage (p24 release)
  IC50: 14.2 ± 0.8 nM
VSV pseudotyped virus [4]
  p24 leakage, VSV-envelope control virus: no leakage
[5]
  IC50: 200 ± 22 nM
HOS.T4.R5 cells [6]
  cytotoxicity (cell viability, WST-1): No statistically significant differences
HIV-1 BaL pseudovirus [7]
  virion morphology after treatment (TEM): significant morphological differences relative to intact virions

## microvirin [MVN, reference compound]
[1]
  antiviral property / infectivity inhibition of MVN-based DAVEI: only exhibited antiviral property
[2]; FIG. 10C
  virolytic property of MVN-based DAVEI: only exhibited antiviral property
HIV-1 group M clades
  IC50: 2 to 167 nM
Env / gp120
  causes gp120 shedding?: No
  conformationally activates Env?: No

B1: cyanovirin-N (protein)
chain: LGKFSQTCYNSAIQGSVLTSTCERTNGGYNTSSIDLNSVIENVDGSLKWQPSNFIETCRNTQLAGSSELAAECKTRAQQFVSTKINLDDHIANIDGTLKYE
modifications: cyanovirin-N fragment
[1]
  IC50: 0.16 ± 0.031 nM
VSV pseudotyped virus [3]
  viral entry inhibition, VSV envelope pseudovirus: no significant dose-dependent viral entry inhibition
A-MLV pseudotyped virus
  viral entry inhibition, A-MLV envelope pseudovirus: no significant dose-dependent viral entry inhibition
[2]; at concentrations up to at least 10 μM, FIG. 4A
  leakage of intraviral p24: unable to induce the leakage of intraviral p24
HIV-1 BaL pseudovirus [8]
  competition of the virolytic activity of both D4 and D8: observed in a dose-dependent fashion
Env / gp120
  causes gp120 shedding?: No
  conformationally activates Env?: No
HOS.T4.R5 cells [9]
  cytotoxicity (cell viability, WST-1): no significant cytotoxicity; also recorded: No statistically significant differences
